From patent publication US12202818B2, “Compounds and methods for CD73 modulation and indications therefor” (Opna Bio SA, priority 2020, dated 2025)

Columns and labels:
[1] = target: T1, human CD73 (Homo sapiens, UniProt P21589); assay: Inhibitor activity against CD73 in cell based assay (CD73 expressing CHO-K1 cells); conditions: CHO-K1 cells expressing human CD73, 150 μM AMP, 4 hours of incubation; read-out: CHO-K1 CELL_VARIANT: CD73 IC50
T1 construct: expressed in transfected cells
T1 sequence (P21589 27-549): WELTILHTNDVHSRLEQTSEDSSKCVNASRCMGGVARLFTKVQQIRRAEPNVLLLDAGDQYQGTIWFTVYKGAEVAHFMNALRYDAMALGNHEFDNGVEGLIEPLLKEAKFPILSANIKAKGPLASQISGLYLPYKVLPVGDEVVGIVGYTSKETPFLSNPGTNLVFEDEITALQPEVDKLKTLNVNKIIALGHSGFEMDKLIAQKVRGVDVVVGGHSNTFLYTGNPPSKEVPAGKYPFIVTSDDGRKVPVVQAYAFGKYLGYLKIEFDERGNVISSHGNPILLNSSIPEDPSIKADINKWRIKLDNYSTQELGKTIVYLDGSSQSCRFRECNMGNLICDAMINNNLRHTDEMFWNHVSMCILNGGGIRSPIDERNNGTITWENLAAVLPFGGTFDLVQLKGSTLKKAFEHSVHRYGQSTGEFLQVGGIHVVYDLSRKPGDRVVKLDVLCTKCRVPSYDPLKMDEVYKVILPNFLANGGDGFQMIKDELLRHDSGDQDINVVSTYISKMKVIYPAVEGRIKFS
Method in brief: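 Stable human CD73 CHO-K1 cells, 1×10^4/well, exposed to an 8-point 1:3 compound series (top 10 μM, 0.2% DMSO) plus 150 μM AMP for 4 h. Remaining AMP in the supernatant was read by CellTiter-Glo 2.0 luminescence with 1 μM ATP after 30 min at room temperature. IC50 came from nonlinear regression of % inhibition against cell and media-only controls.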

[2] = target: T2, Human CD73 (amino acid residues 27-549) (Homo sapiens, UniProt P21589); assay: CD73 enzymatic assay (luciferase-based indirect assay, CellTiter-Glo); assay type: biochemical; conditions: 0.4 nM CD73, 150 μM AMP, 1 hour at room temperature
T2 construct: Human CD73 (amino acid residues 27-549); His tag (N); made in house; host or cells: E. coli
T2 sequence (P21589 27-549): T1 sequence (P21589 27-549)
Method in brief: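 N-His human CD73 (27-549) expressed in E. coli, 0.4 nM, incubated with 150 μM AMP and compound in 50 mM HEPES pH 7.4, 0.01% Tween-20, 1 h at RT. Remaining AMP read via CellTiter-Glo luminescence with 1 μM ATP after 30 min; IC50 from nonlinear regression of % inhibition.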

Structure (SMILES)	IC50 [1] [µM]	IC50 [2] [µM]
Cc1nn(CC2(F)CNC2)c(C)c1-c1cc(F)nc(O[C@@H]2CCN(c3cn[nH]c(=O)c3Cl)C2)c1 [P-0154, (R)-4-chloro-5-(3-((6-fluoro-4-(1-((3-fluoroazetidin-3-yl)methyl)-3,5-dimethyl-1H-pyrazol-4-yl)pyridin-2-yl)oxy)pyrrolidin-1-yl)pyridazin-3(2H)-one]	0.001 to 10	0.001 to 10
Cn1ncc(Cl)c1-c1ccnc(O[C@@H]2CCN(c3cn[nH]c(=O)c3Cl)C2)c1 [P-0155, (R)-4-chloro-5-(3-((4-(4-chloro-1-methyl-1H-pyrazol-5-yl)pyridin-2-yl)oxy)pyrrolidin-1-yl)pyridazin-3(2H)-one]	0.001 to 10	0.001 to 10
Cc1nn(C)c(C)c1-c1cnnc(O[C@@H]2CCN(c3cn[nH]c(=O)c3Cl)C2)c1 [P-0156, (R)-4-chloro-5-(3-((5-(1,3,5-trimethyl-1H-pyrazol-4-yl)pyridazin-3-yl)oxy)pyrrolidin-1-yl)pyridazin-3(2H)-one]	0.001 to 10	0.001 to 10
Cc1nn(C)c(C)c1-c1cc(O[C@@H]2CCN(c3cn[nH]c(=O)c3Cl)C2)cnn1 [P-0157, (R)-4-chloro-5-(3-((6-(1,3,5-trimethyl-1H-pyrazol-4-yl)pyridazin-4-yl)oxy)pyrrolidm-1-yl)pyridazin-3(2H)-one]	0.001 to 10	0.001 to 10
Cc1noc(C)c1-c1cnnc(O[C@@H]2CCN(c3cn[nH]c(=O)c3Cl)C2)c1 [P-0158, (R)-4-chloro-5-(3-((5-(3,5-dimethylisoxazol-4-yl)pyridazin-3-yl)oxy)pyrrolidin-1-yl)pyridazin-3(2H)-one]	0.001 to 10	0.001 to 10
Cc1nn(CCN(C)C)c(C)c1-c1cc(F)nc(O[C@@H]2CCN(c3cn[nH]c(=O)c3Cl)C2)c1 [P-0161, (R)-4-chloro-5-(3-((4-(1-(2-(dimethylamino)ethyl)-3,5-dimethyl-1H-pyrazol-4-yl)-6-fluoropyridin-2-yl)oxy)pyrrolidin-1-yl)pyridazin-3(2H)-one]	0.001 to 10	0.001 to 10
Cc1noc(C)c1-c1cncc(O[C@@H]2CCN(c3cn[nH]c(=O)c3Cl)C2)c1 [P-0162, (R)-4-chloro-5-(3-((5-(3,5-dimethylisoxazol-4-yl)pyridin-3-yl)oxy)pyrrolidin-1-yl)pyridazin-3(2H)-one]	0.001 to 10	0.001 to 10
CCCn1nc(C)c(-c2cc(F)nc(O[C@@H]3CCN(c4cn[nH]c(=O)c4)C3)c2)c1C [P-0164, (R)-5-(3-((4-(3,5-dimethyl-1-propyl-1H-pyrazol-4-yl)-6-fluoropyridin-2-yl)oxy)pyrrolidin-1-yl)pyridazin-3(2H)-one]	0.001 to 10	0.001 to 10
Cc1nn(CCC(F)(F)F)c(C)c1-c1cc(F)nc(O[C@@H]2CCN(c3cn[nH]c(=O)c3Cl)C2)c1 [P-0166, (R)-4-chloro-5-(3-((4-(3,5-dimethyl-1-(3,3,3-trifluoropropyl)-1H-pyrazol-4-yl)-6-fluoropyridin-2-yl)oxy)pyrrolidin-1-yl)pyridazin-3(2H)-one]	0.001 to 10	0.001 to 10
Cc1nn(C)c(C)c1-c1cncc(O[C@@H]2CCN(c3cn[nH]c(=O)c3Cl)C2)c1 [P-0168, (R)-4-chloro-5-(3-((5-(1,3,5-trimethyl-1H-pyrazol-4-yl)pyridin-3-yl)oxy)pyrrolidin-1-yl)pyridazin-3(2H)-one]	0.001 to 10	0.001 to 10
Cc1nn(CC(F)F)c(C)c1-c1cc(F)nc(O[C@@H]2CCN(c3cn[nH]c(=O)c3Cl)C2)c1 [P-0169, (R)-4-chloro-5-(3-((4-(1-(2,2-difluoroethyl)-3,5-dimethyl-1H-pyrazol-4-yl)-6-fluoropyridin-2-yl)oxy)pyrrolidin-1-yl)pyridazin-3(2H)-one]	0.001 to 10	0.001 to 10
Cc1nn(C(F)F)c(C)c1-c1ccnc(O[C@@H]2CCN(c3cn[nH]c(=O)c3Cl)C2)c1 [P-0170, (R)-4-chloro-5-(3-((4-(1-(difluoromethyl)-3,5-dimethyl-1H-pyrazol-4-yl)pyridin-2-yl)oxy)pyrrolidin-1-yl)pyridazin-3(2H)-one]	0.001 to 10	0.001 to 10
Cc1nn(C)c(C)c1-c1cc(O[C@@H]2CCN(c3cn[nH]c(=O)c3Cl)C2)ncc1F [P-0171, (R)-4-chloro-5-(3-((5-fluoro-4-(1,3,5-trimethyl-1H-pyrazol-4-yl)pyridin-2-yl)oxy)pyrrolidin-1-yl)pyridazin-3(2H)-one]	0.001 to 10	0.001 to 10
Cc1nnn(C)c1-c1cc(F)nc(O[C@@H]2CCN(c3cn[nH]c(=O)c3Cl)C2)c1 [P-0172, (R)-4-chloro-5-(3-((4-(1,4-dimethyl-1H-1,2,3-triazol-5-yl)-6-fluoropyridin-2-yl)oxy)pyrrolidin-1-yl)pyridazin-3(2H)-one]	0.001 to 10	0.001 to 10
Cc1nc(C)c(-c2cc(F)nc(O[C@@H]3CCN(c4cn[nH]c(=O)c4Cl)C3)c2)s1 [P-0174, (R)-4-chloro-5-(3-((4-(2,4-dimethylthiazol-5-yl)-6-fluoropyridin-2-yl)oxy)pyrrolidin-1-yl)pyridazin-3(2H)-one]	0.001 to 10	0.001 to 10
Cc1noc(C)c1-c1ccnc(O[C@@H]2CCN(c3cnn(CCO)c(=O)c3Cl)C2)c1 [P-0176, (R)-4-chloro-5-(3-((4-(3,5-dimethylisoxazol-4-yl)pyridin-2-yl)oxy)pyrrolidin-1-yl)-2-(2-hydroxyethyl)pyridazin-3(2H)-one]	0.001 to 10	0.001 to 10
Cc1noc(C)c1-c1ccnc(O[C@H]2CN(c3cnn(CCO)c(=O)c3Cl)C[C@@H]2F)c1 [P-0177, 4-chloro-5-((3S,4S)-3-((4-(3,5-dimethylisoxazol-4-yl)pyridin-2-yl)oxy)-4-fluoropyrrolidin-1-yl)-2-(2-hydroxyethyl)pyridazin-3(2H)-one]	0.001 to 10	0.001 to 10

The next lines start with the values.

IC50 [1] [µM]	IC50 [2] [µM]	Structure (SMILES)
0.001 to 10	0.001 to 10	Cc1c(C)n(-c2cc(F)nc(O[C@@H]3CCN(c4cn[nH]c(=O)c4Cl)C3)c2)c2ccccc12 [P-0153, (R)-4-chloro-5-(3-((4-(2,3-dimethyl-1H-indol-1-yl)-6-fluoropyridin-2-yl)oxy)pyrrolidin-1-yl)pyridazin-3(2H)-one]
0.001 to 10	0.001 to 10	Cc1nn(CCN2CCCC2)c(C)c1-c1cc(F)nc(O[C@@H]2CCN(c3cn[nH]c(=O)c3Cl)C2)c1 [P-0159, (R)-4-chloro-5-(3-((4-(3,5-dimethyl-1-(2-(pyrrolidin-1-yl)ethyl)-1H-pyrazol-4-yl)-6-fluoropyridin-2-yl)oxy)pyrrolidin-1-yl)pyridazin-3(2H)-one]
0.001 to 10	0.001 to 10	Cc1nn(CCN2CCOCC2)c(C)c1-c1cc(F)nc(O[C@@H]2CCN(c3cn[nH]c(=O)c3Cl)C2)c1 [P-0160, (R)-4-chloro-5-(3-((4-(3,5-dimethyl-1-(2-morpholinoethyl)-1H-pyrazol-4-yl)-6-fluoropyridin-2-yl)oxy)pyrrolidin-1-yl)pyridazin-3(2H)-one]
0.001 to 10	0.001 to 10	O=c1[nH]ncc(N2CC[C@@H](Oc3cncc(O[C@@H]4CCN(c5cn[nH]c(=O)c5Cl)C4)c3)C2)c1Cl [P-0163, 5,5′-((3R,3′R)-(pyridine-3,5-diylbis(oxy))bis(pyrrolidine-3,1-diyl))bis(4-chloropyridazin-3(2H)-one)]
0.001 to 10	0.001 to 10	CCCn1nc(C)c(-c2cc(F)nc(O[C@@H]3CCN(c4cn[nH]c(=O)c4Cl)C3)c2)c1C [P-0165, (R)-4-chloro-5-(3-((4-(3,5-dimethyl-1-propyl-1H-pyrazol-4-yl)-6-fluoropyridin-2-yl)oxy)pyrrolidin-1-yl)pyridazin-3(2H)-one]
0.001 to 10	0.001 to 10	Cc1nn(CC(F)(F)F)c(C)c1-c1cc(F)nc(O[C@@H]2CCN(c3cn[nH]c(=O)c3Cl)C2)c1 [P-0167, (R)-4-chloro-5-(3-((4-(3,5-dimethyl-1-(2,2,2-trifluoroethyl)-1H-pyrazol-4-yl)-6-fluoropyridin-2-yl)oxy)pyrrolidin-1-yl)pyridazin-3(2H)-one]
0.001 to 10	0.001 to 10	Cn1cncc1-c1cc(F)nc(O[C@@H]2CCN(c3cn[nH]c(=O)c3Cl)C2)c1 [P-0173, (R)-4-chloro-5-(3-((6-fluoro-4-(1-methyl-1H-imidazol-5-yl)pyridin-2-yl)oxy)pyrrolidin-1-yl)pyridazin-3(2H)-one]
0.001 to 10	0.001 to 10	Cc1cnn(C)c1-c1cc(F)nc(O[C@@H]2CCN(c3cn[nH]c(=O)c3Cl)C2)c1 [P-0175, (R)-4-chloro-5-(3-((4-(1,4-dimethyl-1H-pyrazol-5-yl)-6-fluoropyridin-2-yl)oxy)pyrrolidin-1-yl)pyridazin-3(2H)-one]
